# Measured values taken from US11590129B2, “Combination therapy with an antitumor alkaloid” (PHARMA MAR, S.A., priority 2010, dated 2023).
# Assays:
# [1] = system: U87-MG human glioblastoma cell line; assay: cells; conditions: Homo sapiens, U-87 MG, 72 h
# [2] = system: RAMOS human lymphoma cell line; assay: cells; conditions: Homo sapiens, Ramos, 72 h
# [3] = system: U-937 human lymphoma cell line; assay: cells; conditions: Homo sapiens, U-937, 72 h
# HGC-27 tumors = assay: Human gastric tumor xenografts (HGC-27) in athymic nude mice, tumor volume % T/C; type: in vivo
# Experimental: Female athymic nude mice (Harlan Laboratories Models, S.L. (Barcelona, Spain) were utilized for all experiments. Animals were housed in individually ventilated cages, up to ten per cage in a 12-hour light-dark cycle at 21-23° C. and 40-60% humidity. The mice were allowed free access to irradiated standard rodent diet and sterilized water. Animals were acclimated for at least 5 days prior to tumor implantation with a tumor cell suspension.
# HGC-27 cells were grown at 37° C. with 5% CO2 in Iscove's modified Dulbeco's medium (IDMD).
# PM01183 was provided in the form of vials of lyophilized PM01183 cake which was reconstituted with water for infusion to a concentration of 0.2 mg/mL. The PM01183 stock solution was further diluted in 5% glucose solution for injection to the dosing formulation concentrations. Cisplatin and 5-fluorouracil were provided as solutions prepared by diluting the product with 0.9% saline solution for injection to the target final concentration.
# Dose level groups were administered either as single agents or in combination.
# Comparison of the median tumor volume in the treatment groups (T) to the median tumor volume in the control group (T/C×100%) was used for evaluation of the antitumor efficacy.
# [4] = PM01183 0.045 mg/kg iv days 0,7, 5-fluorouracil study
# [5] = PM01183 0.045 mg/kg iv days 0,7, cisplatin study
# [6] = PM01183 0.09 mg/kg iv days 0,7, 5-fluorouracil study
# [7] = PM01183 0.09 mg/kg iv days 0,7, cisplatin study
# [8] = PM01183 0.135 mg/kg iv days 0,7, 5-fluorouracil study
# [9] = PM01183 0.135 mg/kg iv days 0,7, cisplatin study
# [10] = PM01183 0.18 mg/kg iv days 0,7, 5-fluorouracil study
# [11] = PM01183 0.18 mg/kg iv days 0,7, cisplatin study
structure (smiles),measurement,setting,value
COc1ccc2[nH]c3c(c2c1)CCN[C@]31CS[C@@H]2c3c(OC(C)=O)c(C)c4c(c3[C@H](COC1=O)N1[C@@H]2[C@H]2c3c(cc(C)c(OC)c3O)C[C@@H]([C@@H]1O)N2C)OCO4 [PM01183],IC50,[1],4.5 nM
same,EC50,[2],1.39 nM
same,EC50,[3],1.03 nM
same,% T/C on day 0,HGC-27 tumors; [4],99.9%
same,% T/C on day 2,HGC-27 tumors; [4],84.3%
same,% T/C on day 5,HGC-27 tumors; [4],103.2%
same,% T/C on day 7,HGC-27 tumors; [4],104.6%
same,% T/C on day 9,HGC-27 tumors; [4],103.5%
same,% T/C on day 12,HGC-27 tumors; [4],101.6%
same,% T/C on day 14,HGC-27 tumors; [4],85.0%
same,% T/C on day 0,HGC-27 tumors; [5],98.9%
same,% T/C on day 3,HGC-27 tumors; [5],85.9%
same,% T/C on day 5,HGC-27 tumors; [5],83.1%
same,% T/C on day 7,HGC-27 tumors; [5],92.1%
same,% T/C on day 10,HGC-27 tumors; [5],76.4%
same,% T/C on day 12,HGC-27 tumors; [5],81.6%
same,% T/C on day 14,HGC-27 tumors; [5],88.5%
same,% T/C on day 0,HGC-27 tumors; [6],100.6%
same,% T/C on day 2,HGC-27 tumors; [6],90.5%
same,% T/C on day 5,HGC-27 tumors; [6],87.6%
same,% T/C on day 7,HGC-27 tumors; [6],83.4%
same,% T/C on day 9,HGC-27 tumors; [6],82.6%
same,% T/C on day 12,HGC-27 tumors; [6],76.7%
same,% T/C on day 14,HGC-27 tumors; [6],67.7%
same,% T/C on day 0,HGC-27 tumors; [7],98.6%
same,% T/C on day 3,HGC-27 tumors; [7],67.5%
same,% T/C on day 5,HGC-27 tumors; [7],67.9%
same,% T/C on day 7,HGC-27 tumors; [7],66.1%
same,% T/C on day 10,HGC-27 tumors; [7],70.2%
same,% T/C on day 12,HGC-27 tumors; [7],60.3%
same,% T/C on day 14,HGC-27 tumors; [7],65.0%
same,% T/C on day 0,HGC-27 tumors; [8],100.2%
same,% T/C on day 2,HGC-27 tumors; [8],81.5%
same,% T/C on day 5,HGC-27 tumors; [8],58.7%
same,% T/C on day 7,HGC-27 tumors; [8],61.4%
same,% T/C on day 9,HGC-27 tumors; [8],60.2%
same,% T/C on day 12,HGC-27 tumors; [8],54.6%
same,% T/C on day 14,HGC-27 tumors; [8],55.1%
same,% T/C on day 0,HGC-27 tumors; [9],97.9%
same,% T/C on day 3,HGC-27 tumors; [9],71.6%
same,% T/C on day 5,HGC-27 tumors; [9],59.9%
same,% T/C on day 7,HGC-27 tumors; [9],47.8%
same,% T/C on day 10,HGC-27 tumors; [9],39.3%
same,% T/C on day 12,HGC-27 tumors; [9],37.1%
same,% T/C on day 14,HGC-27 tumors; [9],38.3%
same,% T/C on day 0,HGC-27 tumors; [10],99.6%
same,% T/C on day 2,HGC-27 tumors; [10],78.6%
same,% T/C on day 5,HGC-27 tumors; [10],50.9%
same,% T/C on day 7,HGC-27 tumors; [10],43.3%
same,% T/C on day 9,HGC-27 tumors; [10],41.0%
same,% T/C on day 12,HGC-27 tumors; [10],33.0%
same,% T/C on day 14,HGC-27 tumors; [10],29.2%
same,% T/C on day 0,HGC-27 tumors; [11],99.6%
same,% T/C on day 3,HGC-27 tumors; [11],65.9%
same,% T/C on day 5,HGC-27 tumors; [11],55.6%
same,% T/C on day 7,HGC-27 tumors; [11],38.7%
same,% T/C on day 10,HGC-27 tumors; [11],33.5%
same,% T/C on day 12,HGC-27 tumors; [11],24.3%
same,% T/C on day 14,HGC-27 tumors; [11],24.3%
